The source of these data is the NIST ThermoML archive (doi:10.1021/acs.jced.5b01111).

Structures are written as SMILES. Numbers after ± are expanded uncertainties.

A short description of this series: wn = mass fraction of the nth substance listed. The settings on record: 288.15 K, 100 kPa, Liquid, Pycnometric method.

In the case of `O=S(=O)([O-])[O-].[K+].[K+]` [potassium sulfate] + O, the mass density (w1 = 0.0912) was determined as 1075.6 ± 2.4 kg/m3.

Take `O=P([O-])(O)O.[K+]` [monopotassium phosphate] + O: the mass density (w1 = 0.1653) was found to be 1122.9 ± 2.6 kg/m3.

Consider `[Cl-].[K+]` [potassium chloride] + O, for which the mass density (w1 = 0.2472) stood at 1168.2 ± 2.9 kg/m3.
